{
  "source": "paper PMC4264749",
  "about": "“Phlebotomy Treatment for Elimination of Perfluoroalkyl Acids in a Highly Exposed Family: A Retrospective Case-Series” (PLoS ONE, 2014)",
  "origin": "cited, not measured here",
  "conditions": "cited from earlier work",
  "data": [
    {"substance": "cholestyramine", "values": [
      {"measurement": "facilitating removal / elimination of PFAAs", "value": "successful"},
      {"measurement": "PFOA levels in users compared to non-users", "setting": "individuals using it for other medical reasons, West Virginia drinking water contamination", "value": "significantly lower"}
    ]}
  ]
}
